Measurements reported in patent US20030225127A1, “Heterocyclic sulfonamide derivatives” (priority 2003, published 2003).

melting point [°C]	SMILES
170 to 171	CC(CNS(=O)(=O)C(C)C)c1ccc(-c2ccc3c(c2)CC(=O)N3)cc1 (centres unmarked) [Example 3, 5-[4-(1-methyl-2-{[(methylethyl)sulfonyl]amino}ethyl)phenyl]indolin-2-one]
184 to 185	CC(C)S(=O)(=O)NC[C@H](C)c1ccc(-c2ccc3c(c2)CC(=O)N3)cc1 [Example 4, 5-[4-((1R)-1-methyl-2-{[(methylethyl)sulfonyl]amino}ethyl)phenyl]indolin-2-one]
